Source: ChEMBL document CHEMBL4118154, “Discovery of evocalcet, a next-generation calcium-sensing receptor agonist for the treatment of hyperparathyroidism” (Bioorg Med Chem Lett, 2018)
Activity calls are given as the source filed them. The calls are words filed in the database; no cut-off is given here.

Tests used:
[1] = Initial plasma concentration in monkey at 0.3 mg/kg, iv; format: ADME, organism-based, Macaca mulatta; details: rhesus monkey
[2] = target: T1, Extracellular calcium-sensing receptor (Homo sapiens) (UniProt P41180); experiment: Binding affinity to human CaSR expressed in HEK293 cells after 30 mins in presence of NPS 568 by liquid scintillation counting method; format: cell-based
T1 sequence (whole entry): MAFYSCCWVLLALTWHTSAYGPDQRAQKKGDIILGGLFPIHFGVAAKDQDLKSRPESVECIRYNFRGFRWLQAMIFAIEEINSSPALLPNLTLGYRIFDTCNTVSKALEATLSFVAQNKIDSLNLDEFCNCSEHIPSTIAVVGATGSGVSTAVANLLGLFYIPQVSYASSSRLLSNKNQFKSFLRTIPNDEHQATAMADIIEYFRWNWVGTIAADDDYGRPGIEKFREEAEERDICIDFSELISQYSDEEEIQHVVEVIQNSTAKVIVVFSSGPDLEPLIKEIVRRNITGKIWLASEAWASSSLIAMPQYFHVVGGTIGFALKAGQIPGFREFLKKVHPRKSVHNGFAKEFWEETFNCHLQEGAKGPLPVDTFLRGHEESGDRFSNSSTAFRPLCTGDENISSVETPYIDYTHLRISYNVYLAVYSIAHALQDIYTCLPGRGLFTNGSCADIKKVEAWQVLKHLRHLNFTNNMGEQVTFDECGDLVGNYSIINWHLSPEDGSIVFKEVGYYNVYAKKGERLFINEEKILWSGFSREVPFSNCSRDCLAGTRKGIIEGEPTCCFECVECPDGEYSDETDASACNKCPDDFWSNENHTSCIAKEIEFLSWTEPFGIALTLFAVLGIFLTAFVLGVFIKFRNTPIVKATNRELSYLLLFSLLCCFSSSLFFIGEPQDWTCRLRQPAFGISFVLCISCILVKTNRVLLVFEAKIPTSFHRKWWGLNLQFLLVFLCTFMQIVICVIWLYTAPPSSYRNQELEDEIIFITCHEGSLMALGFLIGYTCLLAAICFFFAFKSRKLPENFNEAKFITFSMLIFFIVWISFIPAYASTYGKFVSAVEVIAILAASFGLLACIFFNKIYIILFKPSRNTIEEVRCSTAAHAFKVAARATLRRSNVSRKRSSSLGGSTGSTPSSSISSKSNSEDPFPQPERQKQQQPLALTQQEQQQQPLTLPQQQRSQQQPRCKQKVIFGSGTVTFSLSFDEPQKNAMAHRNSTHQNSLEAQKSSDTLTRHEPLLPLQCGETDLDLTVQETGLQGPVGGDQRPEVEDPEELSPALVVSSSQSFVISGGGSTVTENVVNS

[3] = AUC (0 to infinity) in monkey at 0.3 mg/kg, iv; format: ADME, organism-based, Macaca mulatta; parameters: dose 0.3 mg/kg, time infinity, route intravenous; details: rhesus monkey, in vivo
CYP2C8 = target: T2, CYP2C8 (Homo sapiens, UniProt P10632); experiment: Inhibition of CYP2C8 (unknown origin); format: ADME
T2 sequence (P10632 whole entry): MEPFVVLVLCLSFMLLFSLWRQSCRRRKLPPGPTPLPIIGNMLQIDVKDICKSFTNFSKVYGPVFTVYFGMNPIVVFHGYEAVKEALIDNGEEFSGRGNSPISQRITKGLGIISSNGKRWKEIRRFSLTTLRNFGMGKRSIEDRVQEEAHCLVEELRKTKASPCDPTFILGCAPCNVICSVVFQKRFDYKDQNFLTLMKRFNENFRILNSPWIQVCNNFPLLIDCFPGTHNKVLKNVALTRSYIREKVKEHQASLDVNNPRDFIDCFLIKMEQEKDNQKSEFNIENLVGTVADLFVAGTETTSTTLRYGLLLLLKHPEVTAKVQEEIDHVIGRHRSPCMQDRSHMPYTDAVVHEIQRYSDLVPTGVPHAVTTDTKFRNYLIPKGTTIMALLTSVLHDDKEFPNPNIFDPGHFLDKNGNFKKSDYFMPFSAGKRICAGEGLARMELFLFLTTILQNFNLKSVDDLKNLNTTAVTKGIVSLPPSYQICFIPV

[4] = Oral bioavailability in rat at 1 mg/kg; format: ADME, organism-based; details: in vivo
[5] = Total clearance in monkey at 0.3 mg/kg, iv; format: ADME, organism-based, Macaca mulatta; details: rhesus monkey, in vivo
CYP3A4/5 = CYP3A4/5 (Homo sapiens, UniProt P08684+P20815); experiment: Inhibition of CYP3A4/5 (unknown origin); format: ADME, protein assay
[6] = Intrinsic clearance in human liver microsomes assessed per protein; format: ADME, microsome; details: read-out: CLH
[7] = Cmax in monkey at 1 mg/kg, po; format: ADME, organism-based, Macaca mulatta; parameters: dose 1 mg/kg, route oral; details: rhesus monkey, in vivo
CYP2C19 = CYP2C19 (Homo sapiens, UniProt P33261); experiment: Inhibition of CYP2C19 (unknown origin); format: ADME
Chain of CYP2C19 (P33261 whole entry, the tested form may be a part): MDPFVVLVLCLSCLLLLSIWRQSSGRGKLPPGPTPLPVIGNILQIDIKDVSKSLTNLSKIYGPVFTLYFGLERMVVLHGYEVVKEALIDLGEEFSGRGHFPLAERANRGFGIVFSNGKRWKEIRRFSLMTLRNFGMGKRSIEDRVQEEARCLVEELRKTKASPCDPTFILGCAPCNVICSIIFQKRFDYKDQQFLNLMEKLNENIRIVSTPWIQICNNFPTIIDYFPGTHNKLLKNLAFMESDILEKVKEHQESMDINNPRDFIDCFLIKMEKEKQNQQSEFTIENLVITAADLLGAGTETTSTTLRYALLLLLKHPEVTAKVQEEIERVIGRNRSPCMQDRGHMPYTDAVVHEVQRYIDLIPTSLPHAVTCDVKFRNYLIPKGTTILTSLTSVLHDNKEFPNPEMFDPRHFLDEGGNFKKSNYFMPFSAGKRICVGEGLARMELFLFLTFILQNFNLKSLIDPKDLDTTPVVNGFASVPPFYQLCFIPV

[8] = target: T3, Extracellular calcium-sensing receptor (Rattus norvegicus, UniProt P48442); experiment: Agonist activity at CaSR in rat parathyroid cells assessed as inhibition of PTH (1 to 84 residues) production in presence of Cacl2 by ELISA; format: functional, cell-based
T3 sequence (P48442 whole entry): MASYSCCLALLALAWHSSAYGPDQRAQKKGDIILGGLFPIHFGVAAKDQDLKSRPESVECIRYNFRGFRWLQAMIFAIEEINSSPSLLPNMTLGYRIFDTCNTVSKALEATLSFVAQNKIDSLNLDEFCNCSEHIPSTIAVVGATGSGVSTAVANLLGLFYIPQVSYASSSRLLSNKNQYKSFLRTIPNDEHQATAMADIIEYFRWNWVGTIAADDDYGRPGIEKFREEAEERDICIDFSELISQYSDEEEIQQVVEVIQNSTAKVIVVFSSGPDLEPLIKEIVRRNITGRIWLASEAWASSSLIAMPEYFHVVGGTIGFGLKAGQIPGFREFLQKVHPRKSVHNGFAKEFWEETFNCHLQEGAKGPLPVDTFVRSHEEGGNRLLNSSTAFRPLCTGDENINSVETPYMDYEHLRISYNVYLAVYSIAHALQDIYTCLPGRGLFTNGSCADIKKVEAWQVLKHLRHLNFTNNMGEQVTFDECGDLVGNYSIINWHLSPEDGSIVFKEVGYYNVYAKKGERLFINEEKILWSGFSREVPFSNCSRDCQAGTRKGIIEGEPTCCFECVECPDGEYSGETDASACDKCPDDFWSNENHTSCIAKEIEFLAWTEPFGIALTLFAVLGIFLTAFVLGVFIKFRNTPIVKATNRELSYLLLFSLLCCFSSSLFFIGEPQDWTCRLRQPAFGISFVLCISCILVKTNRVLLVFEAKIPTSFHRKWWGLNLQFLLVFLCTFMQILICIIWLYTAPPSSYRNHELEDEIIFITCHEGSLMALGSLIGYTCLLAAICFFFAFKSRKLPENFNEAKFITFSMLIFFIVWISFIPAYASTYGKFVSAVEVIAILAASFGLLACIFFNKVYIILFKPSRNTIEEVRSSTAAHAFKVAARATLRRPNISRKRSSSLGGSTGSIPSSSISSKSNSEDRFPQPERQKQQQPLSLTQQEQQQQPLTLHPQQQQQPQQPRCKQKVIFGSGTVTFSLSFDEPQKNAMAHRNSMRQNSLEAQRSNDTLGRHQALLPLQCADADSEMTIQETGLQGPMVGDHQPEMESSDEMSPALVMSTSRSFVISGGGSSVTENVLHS

**Q.** Which C0 [1] does the source give for `C[C@@H](N[C@H]1CCN(c2ccc(CC(=O)O)cc2)C1)c1cccc2ccccc12.Cl.Cl` here?
**A.** 1630 ng/mL

**Q.** What about the Activity [2] of the same compound?
**A.** inactive

**Q.** And the AUC(0-inf) [3]?
**A.** 987 ng·h/mL

**Q.** And the IC50 (CYP2C8)?
**A.** > 50 µM

**Q.** What about the bioavailability [4] of the same compound?
**A.** 84.2%

**Q.** And the clearance [5]?
**A.** 5.37 mL/min/kg

**Q.** What about the IC50 (CYP3A4/5) of the same compound?
**A.** > 50 µM

**Q.** And the microsomal CLint [6]?
**A.** 68 µL/min/mg

**Q.** And the Cmax [7]?
**A.** 746 ng/mL

**Q.** And the IC50 (CYP2C19)?
**A.** > 50 µM

**Q.** What about the IC50 [8] of the same compound?
**A.** 0.0308 µM
